Laboratory results published in patent US4146719A, “Piperazinyl derivatives of quinoline carboxylic acids” (priority 1977, dated 1979).
Values after ≈ are worked out from the molar mass of the structure shown. “Also recorded” adds a separate entry of the source. Where two headings read alike, the source gives them in different places.

Experiments:
[1] = test system: Escherichia coli NIHJ JC-2; assay: Influence of rat bile on antibacterial activity; assay type: cell-based; details: bile of rats
Experimental: (§1) Nutrient agar was heated and melted. […] The diameter of the inhibition zone was measured.

[2] = Chelate formation with ferric ion; assay type: physicochemical; details: one third molar equivalent of ferric chloride hexahydrate, molar equivalent of sodium hydroxide, water
Source text: It is known that most of drugs such as Quinoform and Ethambutol which form chelates with metal ions in vivo produce undesirable side effects.

[3] = test system: Escherichia coli NIHJ JC-2; assay: Preventive effect against ascending kidney infection in mice with Escherichia coli; assay type: in vivo, Escherichia coli; mice (ddY, female); details: for effect against ascending kidney infection (in words): mice
Experimental: Ascending kidney infection was induced in female mice (strain: ddY, 6 weeks old, body weight: 22-26g), by instilling Escherlichia coli NIHJ JC-2 suspended in 0.04 ml of Tryptosoya broth (Nissan) into the urinary tract of mice anesthetized with sodium pentobarbital and by holding for 6 hours the mice in plastic tubes (diameter 25 mm) and clamping the outlet of urinary tract.
Each of these test material was orally administered 3 hours after inoculation. Mice were sacrificed 48 hours after inoculation. Kidneys were removed aseptically and bisected, and the two halves were pressed and streaked on agar plate containing Desoxycholate medium (Nissan). The therapeutic effect of each compound was evaluated from the absence of growth on the agar surface after 20 hours of incubation at 37° C.

[4] = test system: Escherichia coli NIHJ JC-2; assay: Influence of liver homogenate on antibacterial activity; assay type: cell-based
Experimental: as §1

[5] = test system: Corynebacterium pyogenes IID 548; assay: Antibacterial activity in vitro, M.I.C., agar dilution streak method; assay type: cell-based; details: Corynebacterium pyogenes, IID548; Gram +
E. coli ATCC 10536 = assay: as above; assay type: cell-based, Escherichia coli; details: Escherichia coli, ATCC10536; Gram -; read-out: M.I.C.
[6] = test system: Streptococcus pyogenes IID 692; assay: as above; assay type: cell-based; details: Streptococcus pyogenes, IID692; Gram +; read-out: M.I.C.
[7] = test system: Haemophilus influenzae IID 986; assay: as above; assay type: cell-based; details: Haemophilus influenzae, IID986; Gram -; read-out: M.I.C.
[8] = Biliary excretion in rats after a single oral administration of 50 mg/kg; details: rat, in vivo, po, 50 mg/kg
[9] = test system: Bacillus subtilis PCI 219; assay: Antibacterial activity in vitro, M.I.C., agar dilution streak method; assay type: cell-based; details: Bacillus subtilis, PCI219; Gram +; read-out: M.I.C.
[10] = test system: Escherichia coli NIHJ JC-2; assay: Influence of serum on antibacterial activity; assay type: cell-based
Experimental: as §1

Escherichia coli NIHJ = assay: Antibacterial activity in vitro, M.I.C., agar dilution streak method; assay type: cell-based; details: Escherichia coli; Gram -; read-out: M.I.C.
Ps. aeruginosa IFO 12689 = assay: as above; assay type: cell-based, Pseudomonas aeruginosa; details: Pseudomonas aeruginosa, IFO12689; Gram -; read-out: M.I.C.
[11] = rat, in vivo
[12] = test system: Diplococcus pneumoniae IID 552; assay: Antibacterial activity in vitro, M.I.C., agar dilution streak method; assay type: cell-based; details: Streptococcus pneumoniae, IID552; Gram +; read-out: M.I.C.
[13] = Serum concentrations after a single oral administration of 50 mg/kg in rats; assay type: in vivo; details: rat, 50 mg/kg oral
in vivo = details: rat, po, 50 mg/kg
Experimental: (§2) Nutrient agar was heated and melted. Escherichia coli NIHJ JC-2 was added to melted agar, and well mixed, and 5 ml of the mixture was placed in Petri dish. Penicylinders were placed on the solidified agar, and the cylinder was filled with serum sample. The plate was placed in the incubator of 37° C. for 20 hours. The diameter of the inhibition zone was measured.
(§3) The tissue homogenates were prepared with 1:4 homogenates in M/15 phosphate buffer (pH 7.5).

Pr. vulgaris XK Denken = assay: Antibacterial activity in vitro, M.I.C., agar dilution streak method; assay type: cell-based, Proteus vulgaris; details: Proteus vulgaris; Gram -; read-out: M.I.C.
[14] = test system: Klebsiella pneumoniae IFO 3512; assay: as above; assay type: cell-based; details: Klebsiella pneumoniae, IFO3512; Gram -; read-out: M.I.C.
[15] = test system: gram-positive and gram-negative bacteria including Pseudomonas aeruginosa; assay: Antibacterial spectrum in vitro (summary in words); assay type: cell-based
Ps. aeruginosa IID 1130 = assay: Antibacterial activity in vitro, M.I.C., agar dilution streak method; assay type: cell-based, Pseudomonas aeruginosa; details: Pseudomonas aeruginosa, IID1130; Gram -; read-out: M.I.C.
[16] = rat, in vivo, po, 50 mg/kg
Experimental: as §2, §3

[17] = test system: Pseudomonas aeruginosa IID 1210; assay: Preventive effect against systemic infection with Pseudomonas aeruginosa in mice; assay type: in vivo, Pseudomonas aeruginosa; mice (ddY, male)
Experimental: Systemic infection was produced by inoculating male mice (strain: ddY, 6 weeks old, body weight: 28-33g) in intraperitoneally with Pseudomonas aeruginosa IID 1210 suspended in 0.5 ml of Brain heart infusion broth (Eiken) containing 5% mucin. […] Each of these test materials was administered to the mice twice, immediately after and then 6 hours after the inoculation, and the therapeutic effect of each compounds was judged from the survival rate.
(1) Miller L. C. and M. L. Tainter: Estimation of the ED50 and its error by means of logarithmic-probit graph paper Proc. Soc. Exp. Biol. Med. 57 261-264 (1944)
(2) Litchfield J. T. and F. Wilcoxon: A simplified method of evaluating dose - effect J. Pharmacol. 92 99-113 (1948)

[18] = test system: Staphylococcus aureus 209P; assay: Antibacterial activity in vitro, M.I.C., agar dilution streak method; assay type: cell-based; details: Staphylococcus aureus, 209P; Gram +; read-out: M.I.C.
[19] = test system: Proteus vulgaris IFO 3167; assay: as above; assay type: cell-based; details: Proteus vulgaris, IFO3167; Gram -; read-out: M.I.C.

CCn1cc(C(=O)O)c(=O)c2cc(F)c(N3CCNCC3)cc21 [Compound (II), 1-ethyl-6-fluoro-1,4-dihydro-7-(1-piperazinyl)-4-oxoquinoline-3-carboxylicacid]
antibacterial activity in presence of bile (in words) [1]: not influenced by bile of rats
chelate compound with ferric ion [2]: did not give any chelate compound when treated with ferric ion
ED50 ([3]; Escherichia coli, NIHJJC2, 48 h, oral, 3 hours after inoculation, challenge 3.2 × 10^7 cells/mouse, read-out: ED50 (95% confidence limit)): 15 mg/kg
ED90 ([3]; Escherichia coli, NIHJJC2, 48 h, oral, 3 hours after inoculation, challenge 3.2 × 10^7 cells/mouse, read-out: ED90): 61 mg/kg
effect against ascending kidney infection (in words) [3]: more potent than nalidixic acid and pipemidic acid
effect against ascending kidney infection (in words) ([3]; listed as EXAMPLE 2): effective against ascending kidney infection with Escherichia coli in mice
antibacterial activity in presence of liver homogenate (in words) [4]: decreased by liver and kidney homogenate
MIC [5]: 3.13 µg/mL
MIC (E. coli ATCC 10536): 0.05 µg/mL (≈ 0.157 µM)
MIC [6]: 3.13 µg/mL (≈ 9.8 µM)
MIC [7]: 0.05 µg/mL (≈ 0.157 µM)
biliary levels and cumulative excretion (in words) [8]: more excellent than those of nalidixic acid and pipemidic acid
concentration at 3 h [8]: 31000 ± 3500 ng/mL
concentration at 6 h [8]: 26400 ± 3200 ng/mL
concentration at 24 h [8]: 18900 ± 1600 ng/mL
concentration at 27 h [8]: 6700 ± 900 ng/mL
dose excreted at 3 h [8]: 0.6 ± 0.06%
dose excreted at 6 h [8]: 1.02 ± 0.11%
dose excreted at 24 h [8]: 2.43 ± 0.23%
dose excreted at 27 h [8]: 2.5 ± 0.23%
MIC [9]: 0.39 µg/mL (≈ 1.22 µM)
antibacterial activity in presence of serum (in words) [10]: not decreased by serum
MIC (Escherichia coli NIHJ): 0.1 µg/mL (≈ 0.313 µM)
MIC (Ps. aeruginosa IFO 12689): 1.56 µg/mL (≈ 4.89 µM)
dose dependence of serum concentration (in words) [11]: depended on the dose from 25 mg/kg to 400 mg/kg
MIC [12]: 12.5 µg/mL (≈ 39.1 µM)
absorption (in words) [13]: rapid
concentration at 0.5 h ([13]; serum, 0.5 hours): 870 ± 110 ng/mL
concentration at 1 h ([13]; serum, 1 hour): 770 ± 130 ng/mL
concentration at 2 h ([13]; serum, 2 hours): 520 ± 100 ng/mL
concentration at 4 h ([13]; serum, 4 hours): 230 ± 20 ng/mL
concentration at 6 h ([13]; serum, 6 hours): 110 ± 10 ng/mL
Tmax ([13]; serum, read-out: time of concentration peak in serum (converted)): 30 min
concentration at 0.5 h (in vivo): 11100 ± 2100 ng/g
concentration at 1 h (in vivo): 10300 ± 2000 ng/g
concentration at 2 h (in vivo): 6500 ± 900 ng/g
concentration at 4 h (in vivo): 3500 ± 900 ng/g
concentration at 6 h (in vivo): 1400 ± 100 ng/g
MIC (Pr. vulgaris XK Denken): 0.2 µg/mL (≈ 0.626 µM)
MIC [14]: 0.05 µg/mL (≈ 0.157 µM)
antibacterial activity (in words) [15]: more active than nalidixic acid and pipemidic acid against both of gram-positive and gram-negative bacteria; also recorded: more active than gentamicin and carbenicillin against gram-negative bacteria including Pseudomonas aeruginosa; also recorded: inhibited even such bacteria those were not susceptible to nalidixic acid, pipemidic acid and carbenicillin
MIC (Ps. aeruginosa IID 1130): 0.78 µg/mL (≈ 2.44 µM)
Tissue level, kidney (free concentration) ([16]; 30 min): 7.4 ± 1.4 µg/g
Tissue level, kidney (free concentration) ([16]; 60 min): 6.8 ± 1.2 µg/g
Tissue level, kidney (free concentration) ([16]; 120 min): 4.4 ± 0.6 µg/g
Tissue level, kidney (free concentration) ([16]; 240 min): 1.9 ± 0.2 µg/g
Tissue level, kidney (free concentration) ([16]; 360 min): 1.0 ± 0.1 µg/g
ED90 ([17]; Pseudomonas aeruginosa, IID1210): 185 mg/kg
ED50 ([17]; Pseudomonas aeruginosa, IID1210, po, 6 h, read-out: ED50 (95% confidence limit)): 98 mg/kg
protection against systemic infection (in words) ([17]; mice, listed as EXAMPLE 2): effectively protected the mice from Pseudomonas aeruginosa infection; also recorded: more potent than pipemidic acid and carbenicillin
MIC [18]: 0.78 µg/mL (≈ 2.44 µM)
MIC [19]: 0.05 µg/mL (≈ 0.157 µM)
